Laboratory results taken from US4985447A, “Certain benzoquinones, naphthoquinones and derivatives thereof which exhibit thromboxane A2 synthetase inhibition or receptor antagonism and the like” (Takeda Chemical Industries, Ltd., priority 1986, dated 1991).

Legend:
[1] = Effect on occurrence of ventricular arrhythmia due to ischemia-reperfusion in rat; format: in vivo, rat (Sprague-Dawley); settings: 30 mg/kg, p.o., rats showing abnormal function/rats used, during 10 minutes of reperfusion; for Incidence of ventricular fibrillation: **p<0.01 (X^2 test); for Incidence of cardiac arrest / Incidence of ventricular tachycardia: *p<0.05 (X^2 test)
Protocol: Procedure: The experiment was carried out in Sprague-Dawley rat (male, 11-12 weeks old) according to the method of A. S. Manning (Circ. Res. 55, 545, 1984). A rat was given orally a drug or water at the dose of 5 ml/kg, and anesthetized 1 hour later with pentobarbital (50 mg/kg, intraperitoneal injection). The rat was thoractomized under artificial respiration and the coronary left anterior descending artery was ligated for 5 minutes, followed by reperfusion for 10 minutes. The incidences of ventricular tachycardia, ventricular fibrillation and cardiac arrest observed for the 10 minutes of reperfusion were determined.

5-lipoxygenase = target: T1, 5-lipoxygenase (Rattus norvegicus, UniProt P12527); experiment: Inhibition of 5-lipoxygenase (production of 5-HETE in RBL-1 cells); format: cell-based, rat (RBL-1, rat basophilic leukemia cells); settings: for inhibition at 1 µM: 10^-6 M; for inhibition at 0.1 µM: 10^-7 M
T1 construct: endogenous in cells; host or cells: RBL-1 cells (rat basophilic leukemia)
T1 sequence (P12527 1-673): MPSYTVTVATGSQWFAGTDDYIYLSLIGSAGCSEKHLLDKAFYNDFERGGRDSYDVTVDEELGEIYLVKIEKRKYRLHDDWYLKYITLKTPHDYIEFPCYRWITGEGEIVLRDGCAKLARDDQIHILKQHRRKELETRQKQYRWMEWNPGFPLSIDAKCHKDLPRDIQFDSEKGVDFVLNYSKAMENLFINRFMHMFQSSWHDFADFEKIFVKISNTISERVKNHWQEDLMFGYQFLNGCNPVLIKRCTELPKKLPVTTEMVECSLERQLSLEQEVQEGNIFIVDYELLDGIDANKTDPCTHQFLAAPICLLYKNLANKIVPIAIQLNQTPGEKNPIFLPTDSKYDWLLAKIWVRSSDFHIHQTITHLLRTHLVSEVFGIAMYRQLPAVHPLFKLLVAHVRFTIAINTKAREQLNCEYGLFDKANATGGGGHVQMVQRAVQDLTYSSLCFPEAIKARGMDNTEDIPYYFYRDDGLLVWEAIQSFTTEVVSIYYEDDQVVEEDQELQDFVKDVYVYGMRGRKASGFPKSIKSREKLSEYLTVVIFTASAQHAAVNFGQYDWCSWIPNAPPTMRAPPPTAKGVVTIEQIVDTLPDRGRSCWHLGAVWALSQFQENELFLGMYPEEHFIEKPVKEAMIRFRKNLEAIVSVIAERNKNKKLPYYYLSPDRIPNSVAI
Protocol: Inhibition of 5-lipoxygenase
10^7 RBL-1 cells (rat basophilic leukemia cells) were suspended in 0.5 ml of MCM (mast cell medium ). To the suspension was subsequently added a solution consisting of 0.5 ml of MCM, 50 μg of arachidonic acid, 10 μg of A-23187 (calcium ionophore, Eli Lilly), and a solution of a quinone compound in ethanol at the final concentration of 1 μM, 0.1 μM, 0.01 μM or 0.001 μM of the test compound was added and allowed to react at 37° C. for 20 minutes. After the reaction, 4 ml of ethanol containing 1,4-dimethoxy-2-methyl-3-(3-methoxypropyl)naphthalene as an internal standard were added, mixed well by shaking, and kept at room temperature for 10 minutes. Then the mixture was centrifuged for 10 minutes (2000 rpm), and the supernatant was separated. The supernatant was concentrated to dryness under reduced pressure. To the concentrate, 0.5 ml of 60% aqueous methanol was added. One hundred μl of this solution was subjected to high performance liquid chromatography for quantitative analysis of 5-HETE (5-hydroxyeicosatetraenoic acid). The amount of 5-HETE was analyzed by measurement of the absorbance at […] with a UV absorption monitor.
Inhibitory effect (IE) of production of 5-HETE is expressed by (1-b/a)×100, wherein a is the peak height or the area corrected with the peak due to the internal standard in the absence of the quinone compound, and b is the peak hight or peak area corrected with the peak due to the internal standard in the presence of the quinone compound.

[2] = Effect on cerebral ischemic seizure in spontaneously hypertensive rat; format: in vivo; settings: orally at 30 mg/kg
Protocol: Procedure: A spontaneously hypertensive rat (male, 20-23 weeks old) was given orally a compound or water at the dose of 5 ml/kg, and 1 hour later anesthetized with pentobarbital. Bilateral common carotid arteries were ligated, and the interval from immediately after the ligation to the occurrence of seizure (cramp, jumping, etc.) was measured.

[3] = target: T2, Thromboxane A2 (TXA2) receptor (Oryctolagus cuniculus, UniProt Q6WQI8); experiment: Thromboxane A2 (TXA2) receptor antagonism (rabbit aorta strip contraction by U-46619); settings: for Inhibition of contraction of rabbit aorta strip due to U-46619: U-46619 10^-7 M, mean ± standard error, 6 cases
T2 construct: contraction by U-46619
T2 sequence (Q6WQI8 1-233): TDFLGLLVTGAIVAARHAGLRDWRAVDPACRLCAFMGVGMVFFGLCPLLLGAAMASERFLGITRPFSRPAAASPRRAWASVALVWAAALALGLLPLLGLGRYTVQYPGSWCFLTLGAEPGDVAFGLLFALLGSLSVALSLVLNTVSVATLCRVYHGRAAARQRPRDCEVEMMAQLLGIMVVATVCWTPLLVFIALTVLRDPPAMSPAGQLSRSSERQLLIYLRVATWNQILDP
Protocol: Thromboxane A2 (TXA2) receptor antagonism
Procedure: A spiral strip of the rabbit aorta (2-3 mm wide, about 3 cm long) was suspended in Krebs-Henseleit solution under the load of 2 g. The Krebs-Henseleit solution was saturated with a mixed gas of 95% O2 -5% CO2 and warmed at 37° C. Inhibition of the contraction of the vascular strip caused by a TXA2 mimic substance, U-46619* (10^-7 M), by pretreatment with Compound No.13 30 minutes before was studied.

inhibition at 1 µM (5-lipoxygenase) [%]	inhibition at 0.1 µM (5-lipoxygenase) [%]	Inhibition of contraction of rabbit aorta strip due to U-46619 ([3]; 10^-5 M) [%]	Inhibition of contraction of rabbit aorta strip due to U-46619 ([3]; 10^-5 M, listed as Compound No.13) [%]	TXA2 receptor antagonism (in words) ([3]; 10^-6 M and 10^-5 M)	Inhibition of contraction of rabbit aorta strip due to U-46619 ([3]; 10^-6 M) [%]	Inhibition of contraction of rabbit aorta strip due to U-46619 ([3]; 10^-6 M, listed as Compound No.13) [%]	Compound	Incidence of ventricular fibrillation [1]	Incidence of ventricular fibrillation ([1]; listed as Compound No.1)	Incidence of cardiac arrest [1]	Incidence of ventricular tachycardia [1]	Incidence of cardiac arrest ([1]; listed as Compound No.1)	Incidence of ventricular tachycardia ([1]; listed as Compound No.1)	Interval to the occurrence of cerebral ischemic seizure (in words) [2]	protective effect against cerebral ischemia (in words) [2]
84	46	–	–	–	–	–	CC1=C(C)C(=O)C(C(C)c2cccnc2)=C(C)C1=O (centres unmarked) [Compound No. 1, 3,5,6-trimethyl-2-[1-(3-pyridyl)ethyl]-1,4-benzoquinone]	3/8	inhibited significantly	1/8	6/8	inhibited significantly	inhibited significantly	prolonged remarkably the interval to the occurrence of cerebral ischemic seizure	exerts protective effects against cerebral ischemia
64	16	86 ± 8	86	remarkable TXA2 receptor antagonism	14 ± 4	14	CC1=C(C)C(=O)C(C(CCCCCC(=O)O)c2cccnc2)=C(C)C1=O (centres unmarked) [Compound No. 13, 7-(3-pyridyl)-7-(3,5,6-trimethyl-1,4-benzoquinon-2-yl)heptanoic acid]	–	–	–	–	–	–	–	–
